Experiments:
[1] = test system: ABC1 5' flanking region with mutated sterol response element; assay: Luciferase reporter construct 1080-1643 with mutated sterol response element in RAW 264.7 cells; format: cell-based, mouse; conditions: mutated sequence nt 1080-1643, sterol response element mutated
Method: (§1) Luciferase Assay: Following transfection, the cells in each well were lysed in 70 μl of 1× cell lysis reagent (Promega, Madison, Wis., Cat. #E3971), subjected to one freeze-thaw cycle, and the lysate cleared by centrifugation for 5 minutes at 12,000 g. After centrifugation, 100 μl of luciferase assay reagent (Promega, Madison, Wis.; Cat. #E1501) was added to 10 μl of lysate. The luciferase activity of each lysate was measured as light units using a luminometer. Additionally, the β-galactosidase activity of each lysate was measured using the chemiluminescent assay reagents supplied in the Galacto-light kit according to the manufacturer's instructions (Tropix Inc., Bedford, Mass.: Cat. #BL100G). The normalized luciferase activity for each lysate was determined by dividing the luciferase activity value by the determined 0-galactosidase value and reported as relative light units.
Transfection of Reporter Constructs: The RAW 264.7 cells were maintained in culture and transfected with either pGL3-Basic (1 μg), pAPR1 (1 μg), or one of the other reporter constructs according to the method described in Example 15. […] The luciferase activity was measured and reported as relative light units as described in Example 15. […]

RAW 264.7 cells = assay: Apo A-I-mediated cholesterol efflux from cholesterol-loaded RAW 264.7 macrophage cells; conditions: for increase in apoAI-induced cholesterol efflux: 9 cis-retinoic acid 30 ng/ml, 22(R)hydroxycholesterol 5 μg/ml, fenfibrate 3 μg/ml, PGI2 25 nm, PGE1 25 nM
Method: Assay to Measure Lipid Efflux: Apo AI-mediated efflux of cholesterol and, phospholipid was assayed according to the method described in. […] RAW 264.7 cells were cholesterol-loaded through the scavenger receptor by 24-hour incubation with acetylated LDL as described in Smith et al., J. Biol. Chem., 271:30647-30655 (1996). Briefly, RAW 264.7 cells in 24-well dishes were cholesterol-loaded and labeled overnight in 0.5 ml of DMEM supplemented with 50 μl/ml 1M glucose, 10 μl/ml 200 mM glutamine and 2% BSA and with 50 μg/ml acetylated low density lipoprotein (AcLDL) and [^3H]-cholesterol which had been pre-incubated for 30 minutes at 37° C. with AcLDL to yield a final concentration of 0.33 μCi/ml [^3H]-cholesterol. Cells were subsequently washed five times with PBS containing 1% BSA and incubated overnight (16-18 hours) in DMEM/BSA to allow for equilibrium of cholesterol pools. After equilibrium of cholesterol pools, cells were rinsed four times with PBS/BSA and incubated for one hour at 37° C. with DMEM/BSA before the efflux incubations. Efflux medium (DMEM/BSA) containing either albumin alone (control), albumin plus HDL (40 μg protein/ml), or albumin plus apo A-I (10 μg/ml, Biodesign International, Kennebunk, Me.) was added and the cells were incubated for 4, 24, or 48 hours. […] The radioactivity found in the culture medium was measured by scintillation counting after a 15-minute centrifugation at 12,000 g. The radioactivity in the cells was measured by scintillation counting after solubilization in 0.5 ml of 0.2M NaOH (Smith et al., J. Biol. Chem., 271:30647-30655 (1996)) or extraction in hexane:isopropanol (3:2 v/v) as described in Francis, et al., J. Clin. Invest., 96, 78-87 (1995). […] The efflux of cholesterol or phospholipid was expressed as the percentage of tritiated lipid counts in the medium over the total tritiated lipid counts recovered from the cells and medium (cpm medium/cpm (medium+lysate)×100).
Briefly, RAW 264.7 cells suspended at a density of 1.25×10^5 cells/ml were grown in DMEM/10% FBS supplemented with pyruvate. After 24 hours, the medium was removed and replaced with DMEM/BSA plus radiolabeled cholesterol (1 μCi/ml ^3[H]-cholesterol) and 50 μg/ml of acetylated LDL for 24 hours. The cells were then maintained for 24 hours in equilibrium medium consisting of DMEM/BSA plus either apo A-I alone (20 μg/ml), apo A-I and 8-bromo 3′, 5′ cAMP (1 mM) or apo A-I and rolipram (50 μM).

ABC1 5' flanking region = assay: Luciferase reporter constructs with portions of the ABC1 5' flanking region in RAW 264.7 cells; format: cell-based, mouse; conditions: wild-type sequence nt 1080-1643 of SEQ ID NO: 3
Method: as §1
Construction of Reporter Constructs: Reporter construct pAPR1 and control reporter construct pGL3-Basic were obtained as described in Example 15. […]
Transfection of Reporter Constructs: The RAW 264.7 cells were maintained in culture and transfected with either pGL3-Basic (1 μg), pAPR1 (1 μg), or one of the other reporter constructs according to the method described in Example 15. […] The luciferase activity was measured and reported as relative light units as described in Example 15.

ABC1 promoter = assay: pAPR1 luciferase reporter under control of the ABC1 promoter in RAW 264.7 cells; format: cell-based, mouse; conditions: pAPR1-transfected RAW 264.7; 10 μM each ligand (20 μM total for both), 24 hours
Description: Construction of Reporter Plasmids: Plasmid pGL3-Basic (Promega, Madison, Wis.; Cat. #E1751) was used as a control plasmid containing the promoterless luciferase gene. The reporter construct containing the ABC1 promoter and luciferase gene was made by cloning a genomic fragment from the 5′ flanking region of the ABC1 gene (hAPRI 5′ promoter, corresponding to nucleotides 1080-1643 of SEQ ID NO: 3) into the Sacd site of the GL3-Basic plasmid to generate plasmid GL-6a. Next, plasmid GL-6a was digested with SneI and Acc651. […]
as §1, with “After centrifugation, 100 μl of luciferase assay reagent (Promega, Madison, Wis.; Cat. #E1501) was added to 10 μl of lysate.” left out, “units. […]” for “units.”

ABC1 mRNA = ABC1 mRNA by RT-PCR in RAW 264.7 cells; format: cell-based, mouse; conditions: single ligand 10 μM, 24 hours, serum-free DMEM/BSA
Method: RT-PCR: Quantitative PCR was carried out using the GeneAmp 5700 Sequence. Detection System (Perkin-Elmer Applied Biosystems, Foster City, Calif.). Briefly, 500 ng of DNase-treated mRNA was reverse transcribed using random hexamer primers at 2.5 μM. Approximately 5% of this reaction was amplified by PCR using the SYBR green core kit (PE. Applied Biosystems, Foster City, Calif.; Cat. #4304886) and human ABC1 primers LF: 5′-[…] (SEQ ID NO: 11) and LR: 5′-[…] (SEQ ID NO: 12) to yield an 82 bp fragment corresponding to nucleotides 7018-7099 of human ABC1. PCR cycle conditions were as follows: 10 minutes 95° C.; followed by 40 cycles of 95° C., 15 seconds; and 60° C., 60 seconds. The mRNA in each sample was quantitated by detecting the increase in fluorescence caused by SYBR green binding to the double-stranded amplification product generated during each PCR cycle. All samples were run in triplicate and normalized against 0-actin mRNA, amplified in parallel reactions with primers actinF: 5′-[…] (SEQ ID NO: 54) and actinB: 5′-[…] […]
Mouse RAW 264.7 cells were grown to subconfluence in DMEM/10% FBS and then treated for 24 hours in serum-free DMEM/BSA with either 9-cis retinoic acid (10 μM), 20-hydroxycholesterol (10 μM), or both ligands together (20 μM total). […] RNA was extracted, treated with DNase, and ABC1 mRNA measured by RT-PCR using PE Biosystems SYBR Green Technology as described in Example 9.

normal skin fibroblasts = assay: Apo A-I-mediated cholesterol efflux after antisense inhibition of ABC1 mRNA; format: cell-based, human; conditions: 30 μM oligonucleotide, apo A-I-mediated efflux after 12 hours
Method: Normal skin fibroblasts were labeled with [^3H]cholesterol as described in Example 1.
The cells were then loaded with oligonucleotide by scraping in the presence of either 30 μM control. Morpholino oligonucleotide (5′-[…]-3′ corresponding to the antisense complement of a β-globin thalassemic mRNA; SEQ ID NO: 52) or […] ABC1 antisense. Morpholino oligonucleotide (5′-[…]-3′; SEQ ID NO: 53) and reseeding on new dishes. Control cells were mock-loaded after [^3H]cholesterol-labeling by scraping and reseeding in the absence of oligonucleotide. […] The results are shown in FIG. 6 as the mean±SEM of three separate experiments, normalized to the value for apo A-I-specific efflux in the absence of oligonucleotide in each experiment.

ABC1 = conditions: dose-dependent; Becq et al. 1997, Hamon et al. 1997; cited from earlier work
normal fibroblasts = assay: Apo A-I-mediated lipid efflux from normal fibroblasts with ABC1 transport inhibitors; format: cell-based, human; conditions: 0.2 or 0.4 mM, 6 hours, 5 μg/ml apo A-I
Method: To test whether inhibition of ABC1 could affect the process of apolipoprotein-mediated cholesterol efflux, two compounds reported to be ABC1 inhibitors were tested in assays which monitor apolipoprotein mediated cholesterol efflux. […] The apolipoprotein-mediated cholesterol efflux assays were performed as described in Example 1 with the noted changes.
Cholesterol-loaded and [^3H]cholesterol-labeled normal fibroblasts (n=3) were incubated for 6 hours with or without 5 μg/ml apo A-I and either 0, 0.2 mM, or 0.4 mM DIDS. In addition, cholesterol-loaded and [^3H]cholesterol-labeled normal fibroblasts (n=3) were incubated for 6 hours with or without 5 μg/ml apo A-I and either 0, 0.2 mM, or 0.4 mM BSP. […] The results are shown in FIG. 5 as the mean±SD (n=3) of efflux in the presence of apo A-I after subtraction of values for apo A-I-free medium. […] The results of these tests mimic the efflux defect in fibroblasts derived from patients with TD, described in Example 1.

Question: For `CC(C)CC[C@@H](O)[C@@H](C)[C@H]1CC[C@H]2[C@@H]3CC=C4C[C@@H](O)CC[C@]4(C)[C@H]3CC[C@]12C` [22(R)-hydroxycholesterol], which “transcriptional response (luciferase activity)” value [1] is on record?
Answer: did not produce a transcriptional response

Question: For `CC1=C(/C=C/C(C)=C\C=C\C(C)=C\C(=O)O)C(C)(C)CCC1` [9-cis retinoic acid], which cholesterol efflux (RAW 264.7 cells; 0.3 ng/ml 9-cis-RA with apo A-I) is on record?
Answer: 1522 c.p.m.

Question: And the cholesterol efflux (RAW 264.7 cells; 3.0 ng/ml 9-cis-RA with apo A-I)?
Answer: 3568 c.p.m.

Question: What about the cholesterol efflux (RAW 264.7 cells; 30 ng/ml 9-cis-RA with apo A-I) of the same compound?
Answer: 8597 c.p.m.

Question: What about the “increase in apoAI-induced cholesterol efflux” value (RAW 264.7 cells) of the same compound?
Answer: ~3 fold

Question: And the “transcriptional response (luciferase activity)” value (ABC1 5' flanking region)?
Answer: produced a transcriptional response

Question: What about the “increase in luciferase reporter activity compared with EtOH control” value (ABC1 promoter) of the same compound?
Answer: 16 fold

Question: And the “ABC1 mRNA expression” value (ABC1 mRNA)?
Answer: increase in ABC1 mRNA expression

Question: What does the source list for `CC(C)CCC[C@](C)(O)[C@H]1CC[C@H]2[C@@H]3CC=C4C[C@@H](O)CC[C@]4(C)[C@H]3CC[C@@]21C` [20(S)-hydroxycholesterol]?
Answer: transcriptional response (luciferase activity) (ABC1 5' flanking region): produced a transcriptional response; transcriptional response (luciferase activity) [1]: did not produce a transcriptional response; ABC1 mRNA expression (ABC1 mRNA): increase in ABC1 mRNA expression

Question: Which “increase in apoAI-induced cholesterol efflux” value (RAW 264.7 cells) does the source give for `CCCCC[C@H](O)/C=C/[C@H]1[C@H](O)CC(=O)[C@@H]1CCCCCCC(=O)O` [PGE1, prostaglandin E1] here?
Answer: ~3 fold

Question: With “ABC1 antisense. Morpholino oligonucleotide: Morpholino 5′-CATGTTGTTCATAGGGTGGGTAGCTC-3′; SEQ ID NO: 53, directed against ABC1 mRNA (all phosphorodiamidate morpholino (PMO))” as the compound, how does the “reduction in cholesterol efflux compared with control anti-sense oligonucleotide” value (normal skin fibroblasts) read?
Answer: 50%

Question: For `O=C1OC(c2ccc(O)c(S(=O)(=O)O)c2)(c2ccc(O)c(S(=O)(=O)O)c2)c2c(Br)c(Br)c(Br)c(Br)c21` [BSP, sulphobromophthaleine], which “anion transport activities of ABC1” value (ABC1) is on record?
Answer: inhibit

Question: What about the “effect on apo A-I-mediated efflux of tritiated cholesterol” value (normal fibroblasts) of the same compound?
Answer: inhibit

Question: For `CCCCC[C@H](O)/C=C/[C@@H]1[C@H]2C/C(=C/CCCC(=O)O)O[C@H]2C[C@H]1O` [PGI2, prostacyclin PGI2], which “increase in apoAI-induced cholesterol efflux” value (RAW 264.7 cells) is on record?
Answer: ~2 fold

Question: With `CC(C)OC(=O)C(C)(C)Oc1ccc(C(=O)c2ccc(Cl)cc2)cc1` [fenfibrate] as the compound, how does the “increase in apoAI-induced cholesterol efflux” value (RAW 264.7 cells) read?
Answer: ~2 fold

— patent US6835563B1, “Compositions and methods for increasing cholesterol efflux and raising HDL ATP binding cassette transporter protein ABC1” (CV Therapeutics, priority 1999, dated 2004)
